# Measurements published in patent US6147107A, “Specific inhibition of the P42/44 mitogen activated protein (map) kinase cascade sensitizes tumor cells” (priority 1998, dated 2000).
# Entries after “also recorded” stand apart in the source; their conditions may differ. Where two headings read alike, the source gives them in different places.
# Columns and labels:
# MEK1 and MEK2 [1] = conditions: general statement on known inhibitors; cited from earlier work
# HL-60 cells [2] = assay: Taxol-mediated apoptosis of HL-60 cells
# HL-60 cells [3] = assay: DNA strand breakage in HL-60 cells; assay type: cell-based, human; conditions: ara-C (10 μM) + PD98059 (2.5 μM), 6 hours
# Experimental: (§1) FIGS. 9a and 9b. […] HL-60 cells were exposed to ara-C (10 μM) in the absence or presence of aminomethoxyflavone (PD98059; 2.5 μM) for 6 hours. Apoptotic DNA damage and cell death were assessed as described in Methods. […] FIG. 9b.
# Quantitative Analysis of DNA Damage: The formation and release of DNA fragments and the corresponding breakage of bulk DNA were assessed by bisbenzamide spectrofluorophtometry. To measure intracellular DNA fragments, pelleted cells (4×10^6 cells/pellet in quadruplicate)were resuspended in PBS and lysed by addition of 5 mM Tris-HCl, 30 mM EGTA, 30 mM EDTA, 0.1% Triton X-100, pH 8 (yielding a final density of 10^7 cells,ml) with gentle mechanical agitation. The lysates were centrifuged at 30,000× g at 4° C. for 40 minutes. […] The pellets were discarded and the presence of non-sedimenting DNA fragments in the supernatant from the lysate and medium extracts was quantified following dilution in modified Tris-sodium EGTA buffer (3 mM NaCl, 10 mM Tris-HCl, 1 mM EGTA, pH 8) by spectrofluorophotometry in the presence of Hoechst-33258 (1 μg/ml; μex=365, λem=460). Net fluorescence was directly proportional to the presence of DNA fragments; final values were calculated relative to a highly purified calf thymus DNA calibration standard, and are expressed as ng/μg DNA recovered or released from 10^6 cells. […]
# A431 cells [4] = assay: Propidium iodide staining (necrosis/cell integrity) of A431 cells after radiation; assay type: cell-based, human; conditions: PD98059 + 1 Gy; data not shown
# HL-60 cells [5] = assay: Clonogenicity of HL-60 cells; assay type: cell-based, human
# Experimental: as §1
# Determination of Clonogenicity: Pelleted cells were rinsed extensively and prepared for soft-agar cloning. Cells were resuspended in cold PBS and seeded in 35-mm culture plates at a fixed density (400 cell/ml/well) in complete RPMI-1640 medium containing 20% fetal calf serum, 10% 5637-CM, and 0.3% Bacto agar. Cultures were mainatined for 10 to 12 days before formation of colonies (defined as groups of ≥50 cells) was scored.
# MEK1 and MEK2 [6] = assay: Inhibition of Raf-mediated phosphorylation/activation of MEK1/2; assay type: biochemical
# A431 cells [7] = assay: TUNEL assay, apoptosis of A431 cells after radiation; assay type: cell-based, human
# Experimental: The ability of the cells to survive was assessed using TUNEL assays 24 hours after irradiation and the results are depicted in FIG. 4.
# cancer cells = assay: Radiosensitization of cancer cells; assay type: cell-based; conditions: general statement
# A431 cells [8] = assay: [3H]thymidine incorporation into DNA of A431 cells; assay type: cell-based, human; conditions: PD98059 alone, over 96 hours; not shown
# A431 cells [9] = tested on: A431 cells
# HL-60 cells [10] = assay: Apoptosis of HL-60 cells (ara-C); assay type: cell-based, human
# Experimental: as §1
# [11] = tested on: p42/44 MAP kinase cascade; assay: Inhibition of p42/44 MAP kinase cascade activity in A431 cells; assay type: cell-based, human; conditions: PD98059, 1 Gy
# Experimental: (§2) Determination of MAPK Activity: Pelleted cells were rinsed in PBS, repelleted, and flash-frozen. Cell pellets were lysed in 25 mM Hepes, pH 7.4 containing 5 mM EGTA, 5 mM EDTA, supplemented with protease inhibitors (5 mM benzamidine, 1 mM phenylmethylsulfonylfluoride, 1 mg/ml soybean trypsin inhibitor, 40 μg/ml aprotinin, 1 μM microcystin LR) phosphatase inhibitors (0.5 mM trisodium orthovanadate, 0.5 mM tetrasodium pyrophosphate), and containing 0.056% sodium deoxycholate w/v, 1% Triton X-100 v/v, and 0.1% 2-mercaptoethanol v/v. Lysates were clarified by centrifugation at 5,000× g at 4° C. for 5 min. MAPK activity was assayed using MBP as a substrate following immunoprecipitation of p42/44 MAP kinase with protein A/agarose-conjugated antibody/antisera. Preimmune controls were also run to ensure selectivity of substrate phosphorylation. Reaction mixtures consisted of immunoprecipitated enzyme, substrate, and [γ-^32 P] ATP ([…]) in 25 mM Hepes, pH 7.4 containing 15 mM MgCl2, […], 0.01% (v/v) 2-mercaptoethanol, 1 μM […]. Reactions were initiated by the addition of substrate. MAPK reactions were terminated by transfer to p81 filter paper; filters were rinsed repeatedly in 185 mM orhtophosphoric acid, and then dehydrated in acetone. Total radioactivity in filters was determined by liquid scintillometry.
# p42/44 MAP kinase = assay: MAP kinase activity in HL-60 cells (immunoprecipitation, MBP substrate); assay type: cell-based, human
# Experimental: FIG. 8. […] HL-60 cells were exposed to ara-C (10 μM) in the absence or presence of aminomethoxyflavone (PD98059; 2.5 μM) for 3 hours. MAP kinase activity (p42-ERK1/p44-ERK2) was determined by in vitro assay. In each case, values reflect the mean ±SE of duplicate determinations, and are expressed as a percentage of basal activity present in untreated controls.
# as §2
# HL-60 cells were exposed to ara-C in the absence or presence of PD98059. Following this treatment, the cells were eveluated for MAP kinase activity, DNA strand breakage, clonogenicity potential and extent of apoptosis.
# [12] = ara-C (10 μM) + PD98059 (2.5 μM), 6 hours
compound,measurement,setting,value
"COc1cccc(-c2cc(=O)c3ccccc3o2)c1N [PD98059, 2'-amino-3'-methoxy-flavone]",mode of action at MEK1/2,MEK1 and MEK2 [1],bind to MEK1/2 and sterically prevent Raf from binding
same,cytotoxicity at 10 µM,"HL-60 cells [2]; Homo sapiens, HL-60, 15 h, read-out: apoptotic cells, PD98059 alone",6 to 7%
same,"cell death, taxol plus PD98059",HL-60 cells [2]; taxol 0.5 μM + PD98059 10 μM,58%
same,DNA strand breakage induced by ara-C,HL-60 cells [3],substantially increased
same,potentiation of cell death (propidium iodide staining of unfixed cells),A431 cells [4],large potentiation of cell death
same,clonogenic potential,HL-60 cells [5]; [12],practically nullified
same,"clonogenic potential, single agent",HL-60 cells [5]; either agent alone,neither alone had this effect
same,inhibition of MEK1 and MEK2,MEK1 and MEK2 [6]; general statement,all inhibit MEK1 and MEK2
same,inhibition of Raf phosphorylation of MEK1 and MEK2,MEK1 and MEK2 [6]; stated as demonstrated by the applicant,inhibiting the ability of Raf protein kinases to phosphorylate MEK1 and MEK2
same,"enhancement ratio, co-treatment versus either radiation or PD98059 alone",A431 cells [7]; 5 μM PD98059 + 1 Gy,approximately threefold
same,percentage of cells exhibiting double stranded DNA breaks,"A431 cells [7]; 5 μM PD98059 + 1 Gy, increased from ~4 to 15",4-15%
same,amount of cell killing compared to either treatment alone,A431 cells [7]; 5 μM PD98059 + single 1 Gy exposure,tripled
same,potentiation of cell death (TUNEL),"A431 cells [7]; 5, 10 and 20 μM PD98059 + 1 Gy radiation",large potentiation of cell death
same,effect upon the basal levels of cell viability,"A431 cells [7]; PD98059 alone, low concentrations, 24 hours",small non-significant detrimental effect
same,radiosensitization of cancer cells,cancer cells,all cause radiosensitization of cancer cells
same,proliferative capacity ([3H]thymidine incorporation),A431 cells [8],overall dose-dependent decrease in proliferative capacity
same,cellular proliferation (MTT),"A431 cells [9]; 5, 10 or 20 μM PD98059 + 1 Gy",markedly decreased cellular proliferation
same,enhancement ratios (MTT),A431 cells [9]; PD98059 + 1 Gy,at least threefold
same,proliferative rate (MTT),"A431 cells [9]; PD98059 + 1 Gy radiation, 4-8 days",Decreased proliferative rate
same,proliferative capacity versus either exposure or treatment alone (MTT),"A431 cells [9]; PD98059 + radiation, 4-8 days",large reduction in proliferative capacity
same,proliferative rate (MTT),"A431 cells [9]; PD98059 alone, 4-8 days",Decreased proliferative rate
same,potentiation of apoptotic activity of ara-C,HL-60 cells [10]; PD98059 + ara-C,Potentiation of ara-C-induced apoptosis; also recorded: highly effective
same,extent of apoptosis attributable to ara-C action,HL-60 cells [10]; [12],dramatically increased
same,correlation of MAP kinase cascade inhibition with potentiation of cell death,[11],correlated with its dose-dependent ability to potentiate cell death
same,MAP kinase activity,"p42/44 MAP kinase; 2.5 μM PD98059, with or without ara-C (10 μM), 3 hours",Suppression of MAP kinase activity
same,suppression of ara-C-related stimulation of MAP kinase,p42/44 MAP kinase; 5 μM PD98059 + ara-C,completely suppresses
same,basal MAP kinase activity,"p42/44 MAP kinase; 1-100 μM PD98059, acute exposure",pronounced concentration-related decline
same,Emax,"p42/44 MAP kinase; Homo sapiens, HL-60, 1-100 μM PD98059, read-out: maximal decrease of basal MAP kinase activity",≥ 65%
same,EC50,"p42/44 MAP kinase; Homo sapiens, HL-60, PD98059, acute exposure, read-out: EC50, decline of basal MAP kinase activity",≤ 5 µM
